Assay results as given in patent publication US6770650B2, “Cyclic amine derivatives-CCR-3 receptor antagonists” (Syntex (U.S.A.) LLC, priority 1997, dated 2004).

Assays:
CCR-3 receptor = molecular target: T1, CCR-3 receptor (Homo sapiens, UniProt P51677); test: CCR-3 Receptor Binding Assay, inhibition of 125I eotaxin binding to CCR-3 L1.2 transfectant cells; conditions: concentration required to reduce 125I-eotaxin binding to the CCR-3 L1.2 transfected cells by 50%
T1 construct: expressed in transfected cells; host or cells: L1.2 cells (murine pre-B lymphoma line)
T1 sequence (P51677 1-355): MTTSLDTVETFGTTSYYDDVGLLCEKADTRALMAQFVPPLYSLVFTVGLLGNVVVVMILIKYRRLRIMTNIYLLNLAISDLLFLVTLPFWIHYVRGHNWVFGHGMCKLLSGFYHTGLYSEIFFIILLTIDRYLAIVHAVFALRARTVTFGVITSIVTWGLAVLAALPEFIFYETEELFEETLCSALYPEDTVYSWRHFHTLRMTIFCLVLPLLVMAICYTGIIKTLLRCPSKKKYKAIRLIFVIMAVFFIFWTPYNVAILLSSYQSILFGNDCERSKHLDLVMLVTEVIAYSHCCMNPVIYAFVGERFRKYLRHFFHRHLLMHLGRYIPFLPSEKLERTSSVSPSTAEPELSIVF
Protocol: The CCR-3 antagonistic activity of the compounds of the invention was determined by their ability to inhibit the binding of ^125I eotaxin to CCR-3 L1.2 transfectant cells ((see Ponath, P. D. et al., J. Exp. Med., Vol. 183, 2437-2448, (1996)).
The assay was performed in Costar 96-well polypropylene round bottom plates. Test compounds were dissolved in DMSO and then diluted with binding buffer (50 mM HEPES, 1 mM CaCl2, 5 mM MgCl2, 0.5% bovine serum albumin (BSA), 0.02% sodium azide, pH 7.24) such that the final DMSO concentration was 2%. 25 μl of the test solution or only buffer with DMSO (control samples) was added to each well, followed by the addition of 25 μl of ^125I-eotaxin ([…]) (NEX314, New England Nuclear, Boston, Mass.) and 1.5×10^5 of the CCR-3 L1.2 transfected cells in 25 μl binding buffer. The final reaction volume was 75 μl.
After incubating the reaction mixture for 1 h at room temperature, the reaction was terminated by filtering the reaction mixture through polyethylenimine treated Packard Unifilter GF/C filter plate (Packard, Chicago, Ill.). The filters were washed four times with ice cold wash buffer containing 10 mm HEPES and 0.5M sodium chloride (pH 7.2) and dried at 65° C. for approximately 10 min. 25 μl/well of Microscint-20™ scintillation fluid (Packard) was added and the radioactivity retained on the filters was determined by using the Packard TopCount™.
The IC50 value (concentration of test compound required to reduce ^125I-eotaxin binding to the CCR-3 L1.2 transfected cells by 50%) for some of the compounds of the invention was: […]

[1] = test system: CCR-3 L1.2 transfectant cells; test: Inhibition of eotaxin mediated chemotaxis of CCR-3 L1.2 transfectant cells; format: cell-based; conditions: concentration required to reduce eotaxin mediated chemotaxis of CCR-3 L1.2 transfected cells by 50%
Protocol: The CCR-3 antagonistic activity of the compounds of this invention was determined by measuring the inhibition of eotaxin mediated chemotaxis of the CCR-3 L1.2 transfectant cells, using a slight modification of the method described in Ponath, P. D. et al., J. Clin. Invest. 97: 604-612 (1996). The assay was performed in a 24-well chemotaxis plate (Costar Corp., Cambridge Mass.) CCR-3 L1.2 transfectant cells were grown in culture medium containing RPMI 1640, 10% Hyclone™ fetal calf serum, […] 2-mercaptoethanol and Geneticin 418 (0.8 mg/ml). 18-24 hours before the assay, the transfected cells were treated with n-butyric acid at a final concentration of 5 mM/1×10^6 cells/ml, isolated and resuspended at 1×10^7 cells/ml in assay medium containing equal parts of RPMI 1640 and Medium 199 (M 199) with 0.5% bovine serum albumin.
Human eotaxin suspended in phosphate buffered saline at 1 mg/ml was added to bottom chamber in a final concentration of 100 nm. Transwell culture inserts (Costar Corp., Cambridge Mass.) having 3 micron pore size were inserted into each well and L1.2 cells (1×10^6) were added to the top chamber in a final volume of 100 μl. Test compounds in DMSO were added both to the top and bottom chambers such that the final DMSO volume was 0.5%. The assay was performed against two sets of controls. The positive control contained cells with no test compound in the top chamber and only eotaxin in the lower chamber. The negative control contained cells with no test compound in the top chamber and neither eotaxin nor test compound in lower chamber. The plate was incubated at 37° C. After 4 h, the inserts were removed from the chambers and the cells that had migrated to the bottom chamber were counted by pipetting out 500 μl of the cell suspension from the lower chamber to 1.2 ml Cluster tubes (Costar) and counting them on a FACS for 30 sec.
The IC50 value (concentration of test compound required to reduce eotaxin mediated chemotaxis of CCR-3 L1.2 transfected cells by 50%) for some of the compounds of the invention was: […]

| IC50 (CCR-3 receptor) [nM] | IC50 [1] [nM] | melting point [°C] | SMILES |
| --- | --- | --- | --- |
| 950 | 210 |  | COc1cc(N)c(Cl)cc1C(=O)NCC1CCN(CC(NC(=O)c2ccc(C)cc2)C(C)C)CC1 (racemic) [compound 59, N-{1-(RS)-[4-(4-Amino-5-chloro-2-methoxyphenylcarbonylaminomethyl)piperidin-1-yl-methyl]-2-methylpropyl}-4-methylbenzamide] |
| 690 | 460 |  | COc1cccc(NC(=O)NC2CCCCC2N2CCN(Cc3ccc(Cl)c(Cl)c3)CC2)c1 (racemic) [compound 84, 1-{2(RS)-[4-(3,4-Dichlorobenzyl)piperazin-1-yl]cyclohexyl}-3-(3-methoxyphenyl)urea] |
|  | 240 |  | Cc1ccc(C(=O)N[C@H](CN2CCC(Cc3ccc(Cl)c(Cl)c3)CC2)C(C)C)cc1 [compound 57, N-{1-(S)-[4-(3,4-Dichlorobenzyl)piperidin-1-ylmethyl]-2-methylpropyl}-4-methylbenzamide] |
| 3370 | 60 | 271.1 to 275.5 | Cc1cc(C)c(NC(=O)N[C@@H](CN2CCN(Cc3ccc(Cl)c(Cl)c3)CC2)C(C)C)c(C)c1 [compound 93] |
